Several values for one entry are separate records, joined by “and”; a condition that tells them apart may be missing. Equal entries are not always repeated. Marks after values point to notes of the source that are not given here.
What was measured:
[1] = system: Murine mammary carcinoma MDAH-Mca-4 tumours; assay: Tumour growth delay and cures, MDAH-Mca-4 tumours grown i.m. in mice; assay type: in vivo, female C3H/HeN mice; conditions: for activity against the MDAH-Mca-4 tumour (in words): single i.p. dose, alone or co-administered with DMXAA 80 µmol/kg
Description: (§1) Murine mammary carcinoma MDAH-Mca-4 tumours were grown in female C3H/HeN mice from stocks stored in liquid nitrogen at the sixth transplant generation, and were passaged and used for experiments at the eighth transplant generation. Tumours for experiments were grown by inoculating 20 µl of cell suspension ([…] packed cells) intramuscularly in the right gastrocenmius muscle. Animals were randomised to treatment groups, and treated with drugs when the diameter of the tumour-bearing leg reached 10-11 mm (ca. 0.6 g tumour), approximately 18 days after inoculation. […] Both compounds were administered essentially at the same time (within 1 min). Host toxicity was assessed by determination of lethality, and by measurement of body weight 4-5 days after drug treatment. The diameter of the tumour-bearing leg was measured three times weekly until values exceeded 13 mm (ca 1.4 g tumour) at which time the animals were terminated. The growth curve for each individual tumour was plotted as in Figure 1, and the time-to-endpoint (TTE, time from treatment to endpoint) was determined for each mouse. The median and mean TTE was determined for each treatment group. The mean tumour growth delay for each group was calculated as the difference between mean TTE for treated and control groups. The statistical significance of the antitumour effects was tested using ANOVA followed by Dunnett's test to determine p values for the significance of differences between individual groups.
Animals and Tumours: Murine mammary carcinoma MDAH-Mca-4 tumours were grown from stocks stored in liquid nitrogen at the sixth transplant generation. Tumours (eighth transplant generation when used) were grown from 20 µl of cell suspension (7 mg packed cells), inoculated i.m. in the right gastrocnemius muscle of female C3H/HeN mice (22-25 g at the time of treatment). Mice were randomised to treatment which commenced when the tumour + leg diameter reached 10-11 mm (0.5-0.7 g tumour).
(§2) Toxicity was assessed as lethality, and body weight loss measured four days after treatment. Any animals becoming moribund were terminated and treated as drug-related deaths in the analysis. The diameter of the tumour-bearing leg was measured 3 times per week after treatment. Antitumour activity was assessed from the tumour growth delay, defined as the difference in time to reach the endpoint of 13 mm (1.5 g tumour) for treated and control groups. Responses were classed as cures if animals were free of evident tumour 120 days after treatment. The statistical significance of tumour growth inhibition was tested by ANOVA using SAS for Windows, with Dunnett's test to evaluate p-values for differences between treatment groups. In experiments with substantial numbers of cures (free of tumour for > 120 days after treatment), statistical significance was tested by Kruskal-Wallis non-parametric analysis of variance using SAS for Windows, and the difference between treatment and control groups by Dunn's test using Sigmastat v2.0.

[2] = Host toxicity: lethality, body weight change, MTD in tumour-bearing mice; conditions: for lowering of the MTD for the chemotherapy drug in the combination: co-administration of DMXAA 80 µmol/kg, one dose level; for MTD: MTD (µmol/kg)
Description: as §1, §2

MDAH-Mca-4 tumour = assay: Tumour blood flow inhibition, Hoechst 33342 perfusion marker; assay type: in vivo, mice; conditions: DMXAA at 80 µmol/kg (Fig 6A)
Description: Tumour blood flow inhibition: Tumour blood flow was assessed using the fluorescent perfusion marker Hoechst 33342 (8mg/ml in saline), which was administered i.v. at various times after drug treatment. Mice were scarified 2 min later, and frozen sections (14 µm) prepared from the distal, central and proximal regions of each tumour. Sections were examined with a Nikon epifluorescence microscope at 10x magnification using a UV-1A filter block (excitation 365 nm, barrier filter 400 nm, and dichroic mirror 400 nm). A grid with 81 squares (100 x 100 µm), was used for point scoring of staining. The whole area of each section was scored to avoid bias between peripheral and central regions (which were less well perfused). Normal tissue was excluded but necrotic areas were included. Differences between groups were treated for significance using the Student's t-test (Sigma Stat, version-2.0; Jandel Scientific Limited).

in vivo = conditions: female, C3H/HeN, mouse; for AUC: intraperitoneal
Description: (§3) At various times blood was collected from the retro-orbital sinus of anaesthetised mice into heparinised tubes, and the plasma separated by centrifugation. Tumours were rapidly dissected and frozen at -80°C. Groups of 2-5 mice were used for each time point.
(§4) LC-MS analysis of paclitaxel: Concentrations of paclitaxel in plasma and tumour were determined by HPLC with detection by positive mode electrospray mass spectrometry. Aliquots of plasma (50 µl) were treated with 1ml of ice-cold acetonitrile:methanol (3:1 v/v) to precipitate proteins. Following addition of 5 µl of an internal standard solution (10 mM cephalomannine), samples were centrifuged, and the resulting supernatants evaporated using a Speed-Vac solvent concentrator (Savant Instruments, NY). The residues were dissolved in 100 µl of 1:1 (v/v) methanol:mobile phase (48% acetonitrile, 52% 1mM sodium acetate buffer (pH 6.2)), and 5-40 µl analysed by LC-MS. Frozen tumours were minced, then homogenised in 2 vol distilled water using a Polytron homogeniser. Ice-cold acetonitrile (1 ml), and 10 µl of internal standard (20 µM cephalomannine) was added to 200 µl of tumour homogenate. The samples were centrifuged and the supernatants dried as above. The residues were dissolved in 200 µl of 1:1 (v/v) methanol:mobile phase, and 5 µl analysed by LC-MS.
(§5) The LC-MS system was an Agilent HP1100/MSD (Hewlett Packard Waldbronn, Germany) with a 3.2 mm x 150 mm C8 5 µm column (Alltima Associates Inc., Deerfield, IL) and a flow rate of 0.7 ml/min. The mass detector used N2 as the nebulizing and drying gas (flow rate 10 L/min, 350°C; neubulizer pressure 25 psi, capillary voltage 2500 V, fragmentor voltage 120 V). Paclitaxel (MW 854) and cephalomannine internal standard (MW 832) were detected, using single ion monitoring, as sodium adducts at m/z of 876 and 854, respectively. Spiking of control material indicated assay linearity from 0.3-30 µM for both plasma and tumour (r^2 = 0.999). The intra- and inter- assay precision and accuracy gave coefficients of variation ≤ 5%, and recoveries in the range 92-102%. The lower limit of detection of paclitaxel in plasma and tumour (signal:noise ratio of 3) was 0.3 µM.
(§6) Aliquots of plasma (50 µl) were treated with 1 ml of ice-cold acetonitrile:methanol (3:1 v/v), centrifuged, and the resulting supernatants evaporated as above. The residues were dissolved in 200 µl of 10 mM ammonium acetate buffer (pH 5) and 25 µl was analysed by HPLC using a HP1100 system with diode array detector (278 nm) and fluorescence detector. The column and flow rate were as for paclitaxel above, with a mobile phase of 16% acetonitrile (v/v) in 10 mM ammonium acetate buffer (pH 5). […] The intra- and inter- assay precision and accuracy gave coefficients of variation <7%, and an average recovery of 70%. The lower sensitivity limit of detection by fluorescence (signal:noise ration of 3) was 0.1 µM.
(§7) Pharmacokinetic Modelling: Modelling of pharmacokinetic data was done using ModelMaker version 4.0 (Cherwell Scientific Limited, The Magdalen Centre, Oxford Science Park, Oxford OX4 4GA, United Kingdom). The following pharmacokinetic parameters were used: Kabs, the first-order rate constant for absorption into the central compartment; Cl, total body clearance; Clinter, intercompartmental clearance; Vd, apparent volume of distribution of the central compartment; Vd2, apparent volume of distribution of the second compartment; Km, Michaelis-Menten constant; Vmax, theoretical maximum rate; AUC, area under the concentration-time curve. For all compounds it was assumed that all of the administered dose would reach the central compartment (i.e. 100% bioavailability). Differences between treatment groups were tested using a F-test comparing the entire curves and if this difference was significant (i.e. p≤0.05) the estimates of each individual model parameter for both groups were tested using a 2-tailed t-test.

[3] = Pharmacokinetics in plasma and tumour of tumour-bearing mice
Description: as §3, §4, §5, §6, §7

[4] = DMXAA 80 µmol/kg alone, i.p. once (Table 1)
[5] = chemotherapy drug alone, linear regression of growth delay on dose
[6] = chemotherapy drug co-administered with DMXAA 80 µmol/kg, linear regression
[7] = chemotherapy drug alone at its MTD, i.p.
[8] = chemotherapy drug at MTD of combination, co-administered with DMXAA 80 µmol/kg
[9] = female, C3H/HeN, mouse, in vivo, ip, chemotherapy drug alone (no DMXAA)
[10] = female, C3H/HeN, mouse, in vivo, ip, chemotherapy drug co-administered with DMXAA 80 µmol/kg
[11] = paclitaxel 31.6 µmol/kg alone, i.p. once
[12] = paclitaxel 31.6 µmol/kg alone, i.p. once, 7 mice treated

SMILES: Cc1ccc2c(=O)c3cccc(CC(=O)O)c3oc2c1C [DMXAA, 5,6-dimethylxanthenone-4-acetic acid]
- Growth delay (days) Median ([1]; DMXAA 80 µmol/kg alone (Table 3, interim analysis)): 10.5 days
- Growth delay (days) Mean [1, 4]: 8.3 days
- Number of mice Cures ([1]; DMXAA 80 µmol/kg alone, i.p. once, 7 mice treated (Table 1)): 0
- mean tumour growth delays (range over experiments) ([1]; DMXAA alone at 80 µmol/kg): 3.5 to 8.3 days
- tumour growth delay, overall mean ([1]; DMXAA alone at 80 µmol/kg, all experiments): 6.6 ± 0.6 days
- % Body weight change (d4-5) Mean ([2]; DMXAA 80 µmol/kg alone (Table 3)): -4.8%
- % Body weight change (d4-5) Mean [2, 4]: -4.1%
- inhibition of tumour blood flow (H33342 perfusion), time course (MDAH-Mca-4 tumour): prompt and irreversible blood flow shutdown, with no recovery by 24 hr
- AUC (in vivo; plasma, 80 umol/kg): 3630 µM·h
- Km (in vivo; plasma, ip, 80 µmol/kg): 220 µM
- effect of co-administration on DMXAA plasma pharmacokinetic parameters ([3]; DMXAA 80 µmol/kg with paclitaxel at 23.7 µmol/kg): unaffected
- Vmax (µM hr^-1) ([3]; Plasma, DMXAA 80 µmol/kg i.p., parentheses % CV): 63 (6.1) µM hr^-1

SMILES: CC(=O)O[C@@]12CO[C@@H]1C[C@H](O)[C@@]1(C)C(=O)[C@H](O)C3=C(C)[C@@H](OC(=O)[C@H](O)[C@@H](NC(=O)OC(C)(C)C)c4ccccc4)C[C@@](O)([C@@H](OC(=O)c4ccccc4)[C@H]21)C3(C)C [docetaxel, (2R,3S)-N-carboxy-3-phenylisoserine, N tert-butyl ester, 13-ester with 5b-20-epoxy-1,2a,4,7b,10b,13a-hexahydroxytax-11-en-9-one 4-acetate 2-benzoate trihydrate]
- Growth delay (days) Median ([1]; Docetaxel 17.8 µmol/kg alone, interim analysis): -1.7 days
- Growth delay (days) Median ([1]; Docetaxel 23.7 µmol/kg alone, interim analysis): 0.8 days
- Slope of dose/response [1, 5]: -0.02 ± 0.14 days/µmol/kg
- Slope of dose/response [1, 6]: 1.37 ± 0.22 days/µmol/kg
- DMF ([1]; gradient with DMXAA/gradient without DMXAA, estimated using upper error estimate of the slope for the chemotherapy drug only, trihydrate): significantly greater than unity
- DMF ([1]; im): >9^c
- activity against the MDAH-Mca-4 tumour (in words) ([1]; listed as Docetaxel, trihydrate): essentially inactive
- activity against the MDAH-Mca-4 tumour (in words) ([1]; trihydrate): essentially devoid of activity
- % Body weight change (d4-5) Mean ([2]; Docetaxel 17.8 µmol/kg alone): -1.8%
- Number of mice Deaths ([2]; Docetaxel 17.8 µmol/kg alone, 2 mice treated, interim analysis): 0
- % Body weight change (d4-5) Mean ([2]; Docetaxel 23.7 µmol/kg alone): -4.1%
- Number of mice Deaths ([2]; Docetaxel 23.7 µmol/kg alone, 5 mice treated, interim analysis): 0
- % body weight change at 4 days [2, 7]: -4.1 ± 1.3%
- % body weight change at 4 days [2, 8]: -7.2 ± 1.2%
- lowering of the MTD for the chemotherapy drug in the combination [2]: 1.33 fold
- MTD [2, 9]: 23.7 µmol/kg
- MTD [2, 10]: 17.8 µmol/kg

SMILES: CC(=O)O[C@H]1C(=O)[C@@]2(C)[C@H]([C@H](OC(=O)c3ccccc3)[C@]3(O)C[C@H](OC(=O)[C@H](O)[C@@H](NC(=O)c4ccccc4)c4ccccc4)C(C)=C1C3(C)C)[C@]1(OC(C)=O)CO[C@@H]1C[C@@H]2O [paclitaxel, 5β, 20-Epoxy-1,2a,4,7β,10β,13a-hexahydroxytax-11-en-9-one 4,10-diacetate 2-benzoate 13-ester with (2R, 3 S)-N-benzoyl-3-phenylisoserine]
- antitumour activity ([1]; DMXAA dose-response experiment (Fig 5), paclitaxel alone at 23.7 µmol/kg): no significant activity
- Slope of dose/response [1, 5]: 0.08 ± 0.06 days/µmol/kg
- Slope of dose/response [1, 6]: 1.83 ± 0.4 days/µmol/kg
- DMF ([1]; gradient with DMXAA/gradient without DMXAA, estimated using upper error estimate of the slope for the chemotherapy drug only): significantly greater than unity
- DMF ([1]; gradient with DMXAA/gradient without DMXAA, estimated using upper error estimate of the slope for the chemotherapy drug only, listed as Paclitaxel): >13^c
- Growth delay (days) Mean [1, 11]: 0.1 days
- Number of mice Cures [1, 12]: 0
- Growth delay (days) Mean ([1]; paclitaxel 42.1 µmol/kg alone, i.p. once): 4 days and 4.3 days
- Number of mice Cures ([1]; paclitaxel 42.1 µmol/kg alone, i.p. once, 7 mice treated): 0
- activity against the MDAH-Mca-4 tumour (in words) [1]: essentially inactive
- % body weight change at 4 days [2, 7]: 0.3 ± 1.1%
- % body weight change at 4 days [2, 8]: -3.9 ± 1.2%
- lowering of the MTD for the chemotherapy drug in the combination [2]: 1.33 fold
- Number of mice Deaths ([2]; female, C3H/HeN, mouse, in vivo, ip, 42.1 µmol/kg): 0
- MTD [2, 9]: 42.1 µmol/kg
- MTD [2, 10]: 31.6 µmol/kg
- % Body weight change (d4-5) Mean ([2]; mouse, in vivo, ip): 0.3%
- % Body weight change (d4-5) Mean [2, 11]: 1.9%
- Number of mice Deaths [2, 12]: 0
- AUC (in vivo; plasma, 23.7 umol/kg): 18.8 µM·h
- AUC (in vivo; tumour, 23.7 umol/kg): 32.8 µM·h

— patent publication EP1287854B1 (Cancer Research Technology Limited, priority 2001, dated 2003)
